Where a SMILES comes first, the peptide text is derived from it. [ ]: non-standard residue; d: D form. The star is where a group is joined. X1 = O=C(O)c1cc(NC(=S)*)ccc1-c1c2ccc(=O)cc-2oc2cc(O)ccc12; Acetyl(2-(piperazin-1-yl)) = O=C(CN1CCNCC1)*; 2Nal = N[C@@H](Cc1ccc2ccccc2c1)C(=O)O; Bta = N[C@@H](Cc1csc2ccccc12)C(=O)O; Benzyl(4-Cl) = Clc1ccc(C*)cc1; pGlu = O=C1CC[C@@H](C(=O)O)N1; Pip = O=C(O)[C@@H]1CCCCN1; CH2PO3H2 = O=P(O)(O)C*; Ahx = NCCCCCC(=O)O; Mpa = O=C(O)CCS
What follows are compounds tested against hPin1 (Protein interacting with NIMA (-kinase)) (Homo sapiens, UniProt Q13526) (assay: protease-coupled PPIase assay, hPin1). Settings: not given.
hPin1 (Protein interacting with NIMA (-kinase)), sequence (Q13526 whole entry): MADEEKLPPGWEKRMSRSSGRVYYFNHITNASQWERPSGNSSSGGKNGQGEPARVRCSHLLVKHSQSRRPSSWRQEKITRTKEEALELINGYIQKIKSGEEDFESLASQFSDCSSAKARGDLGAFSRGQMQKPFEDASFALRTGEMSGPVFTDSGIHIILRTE
Assay type: biochemical

Structure (SMILES) | IC50
NC(=O)[C@H](Cc1ccc2ccccc2c1)NC(=O)[C@@H]1CCCCN1C(=O)[C@H](CSCP(=O)(O)O)NC(=O)[C@@H]1CCC(=O)N1 [Compound 39, {3-[2-(1-Carbamoyl-2-naphthalen-2-yl-ethylcarbamoyl)-piperidin-1-yl]-3-oxo-2-[(5-oxo-pyrrolidine-2-carbonyl)-amino]-propylsulfanyl-methyl}-phosphonic acid] ([pGlu]C(CH2PO3H2)[Pip][2Nal]-NH2) | < 1 µM
NC(=O)[C@H](Cc1ccc2ccccc2c1)NC(=O)[C@@H]1CCCCN1C(=O)[C@H](CSCP(=O)(O)O)NC(=O)CC1NC(=O)NC1=O (stereo partly drawn) [Compound 10, {3-[2-(1-Carbamoyl-2-naphthalen-2-yl-ethylcarbamoyl)-piperidin-1-yl]-2-[2-(2.5-dioxo-imidazolidin-4-yl)-acetylamino]-3-oxo-propylsulfanylmethyl}-phosphonicacid] | < 1 µM
NC(=O)[C@H](Cc1ccc2ccccc2c1)NC(=O)[C@@H]1CCCCN1C(=O)[C@H](CSCP(=O)(O)O)NC(=O)Oc1ccccc1 [Compound 46, {3-[2-(1-Carbamoyl-2-naphthalen-2-yl-ethylcarbamoyl)-piperidin-1-yl]3-oxo-2-phenoxycarbonylamino-propylsulfanylmethyl}-phosphonicacid] | < 1 µM
NC(=O)[C@H](Cc1ccc2ccccc2c1)NC(=O)[C@@H]1CCCCN1C(=O)[C@H](CSCP(=O)(O)O)NC(=O)C1CSC(=O)N1 (stereo partly drawn) [Compound 12, {3-[2-(1-Carbamoyl-2-naphthalen-2-yl-ethylcarbamoyl)-piperidin-1-yl]-3-oxo-2-[(2-oxo-thiazolidine-4-carbonyl)-amino]-propylsulfanylmethyl}-phosphonicacid] | < 1 µM
CC(=O)N[C@@H](Cc1csc2ccccc12)C(=O)N[C@@H](COCP(=O)(O)O)C(=O)N1CCCC[C@H]1C(=O)N[C@@H](Cc1ccc2ccccc2c1)C(N)=O [Compound 1, {2-(2-Acetylamino-3-benzo[b]thiophen-3-yl-propionylamino)-3-[2-(1-carbamoyl-2-naphthalen-2-yl-ethylcarbamoyl)-piperidin-1-yl]-3-oxo-propoxymethyl}-phosphonicacid] (Ac-[Bta]S(CH2PO3H2)[Pip][2Nal]-NH2) | 1 to 10 µM
NC(=O)[C@H](Cc1ccc2ccccc2c1)NC(=O)[C@@H]1CCCCN1C(=O)[C@H](CSCP(=O)(O)O)NC(=O)[C@H](Cc1csc2ccccc12)NC(=O)CCCCCNC(=S)Nc1ccc(-c2c3ccc(=O)cc-3oc3cc(O)ccc23)c(C(=O)O)c1 [Compound 9] ({X1-Ahx}-[Bta]C(CH2PO3H2)[Pip][2Nal]-NH2) | < 1 µM
CC(=O)N1C(=O)SCC1C(=O)N[C@@H](CSCP(=O)(O)O)C(=O)N1CCCC[C@H]1C(=O)N[C@@H](Cc1ccc2ccccc2c1)C(N)=O (stereo in doubt) [Compound 42, {2-[(3-Acetyl-2-oxo-thiazolidine-4-carbonyl)-amino]-3-[2-(1-carbamoyl-2-naphthalen-2-yl-ethylcarbamoyl)-piperidin-1-yl]-3-oxo-propylsulfanylmethyl}-phosphonic acid] | < 1 µM
NC(=O)[C@H](Cc1ccc2ccccc2c1)NC(=O)[C@@H]1CCCCN1C(=O)[C@H](CSCP(=O)(O)O)NC(=O)[C@H](Cc1csc2ccccc12)NC(=O)CN1CCNCC1 [Compound 19, {2-[3-Benzo[b]thiophen-3-yl-2-(2-piperazin-1-yl-acetylamino)-propionylamino]-3-[2-(1-carbamoyl-2-naphthalen-2-yl-ethylcarbamoyl)-piperidin-1-yl]-3-oxo-propylsulfanylmethyl}-phosphonic acid] ({Acetyl(2-(piperazin-1-yl))}-[Bta]C(CH2PO3H2)[Pip][2Nal]-NH2) | < 1 µM

Same assay, conditions: hPin1 6 nM; substrate Ac-Ala-Ala-Ser(PO3H2)-Pro-Arg-pNA, trypsin; 35 mM HEPES pH 7.8, 6° C.; read-out: Specificity of the inhibition with rotamases, Target T-1 (IC50 class)

Structure (SMILES) | IC50
NC(=O)[C@H](Cc1ccc2ccccc2c1)NC(=O)[C@@H]1CCCCN1C(=O)[C@H](COCP(=O)(O)O)NC(=O)OCC1c2ccccc2-c2ccccc21 [Compound 4, [3-[2-(1-Carbamoyl-2-naphthalen-2-yl-ethylcarbamoyl)-piperidin-1-yl]-2-(9H-fluoren-9-ylmethoxycarbonylamino)-3-oxo-propoxymethyl]-phosphonic acid] | 1 to 10 µM
CC(C)COC(=O)N[C@@H](CSCP(=O)(O)O)C(=O)N1CCCC[C@H]1C(=O)N[C@@H](Cc1ccc2ccccc2c1)C(N)=O [Compound 43, {3-[2-(1-Carbamoyl-2-naphthalen-2-yl-ethylcarbamoyl)-piperidin-1-yl]-2-isobutoxycarbonylamino-3-oxo-propylsulfanylmethyl}-phosphonic acid] | 1 to 10 µM

Further lines, results first:

IC50 | Structure (SMILES)
< 1 µM | NC(=O)[C@H](Cc1ccc2ccccc2c1)NC(=O)[C@@H]1CCCCN1C(=O)[C@H](CSCP(=O)(O)O)NS(=O)(=O)CCc1ccccc1 [Compound 49, [3-[2-(1-Carbamoyl-2-naphthalen-2-yl-ethylcarbamoyl)-piperidin-1-yl]-3-oxo-2-(2-phenyl-ethanesulfonylamino)-propylsulfanylmethyl]-phosphonicacid]
< 1 µM | NC(=O)[C@H](Cc1ccc2ccccc2c1)NC(=O)[C@@H]1CCCCN1C(=O)[C@H](CSCP(=O)(O)O)NC(=O)Cc1ccc(-c2ccccc2)cc1 [Compound 24, {2-(2-Biphenyl-4-yl-acetylamino)-3-[2-(1-carbamoyl-2-naphthalen-2-yl-ethylcarbamoyl)-piperidin-1-yl]-3-oxo-propylsulfanylmethyl}-phosphonic acid]
< 1 µM | NC(=O)[C@H](Cc1ccc2ccccc2c1)NC(=O)[C@@H]1CCCCN1C(=O)[C@H](CSCP(=O)(O)O)NC(=O)CCSCc1ccc(Cl)cc1 [Compound 5, {3-[2-(1-Carbamoyl-2-naphthalen-2-yl-ethylcarbamoyl)-piperidin-1-yl]-2-[3-(4-chloro-benzylsulfanyl)-propionylamino]-3-oxo-propylsulfanylmethyl}-phosphonicacid] ([Mpa](Benzyl(4-Cl))C(CH2PO3H2)[Pip][2Nal]-NH2)
1 to 10 µM | Cc1cc(C)c(S(=O)(=O)N[C@@H](CSCP(=O)(O)O)C(=O)N2CCCC[C@H]2C(=O)N[C@@H](Cc2ccc3ccccc3c2)C(N)=O)c(C)c1 [Compound 52, [3-[2-(1-Carbamoyl-2-naphthalen-2-yl-ethylcarbamoyl)-piperidin-1-yl]-3-oxo-2-(2.4.6-trimethyl-benzenesulfonylamino)-propylsulfanylmethyl]-phosphonicacid]
< 1 µM | NC(=O)[C@H](Cc1ccc2ccccc2c1)NC(=O)[C@@H]1CCCCN1C(=O)[C@H](CSCP(=O)(O)O)NS(=O)(=O)CCCc1ccccc1 [Compound 50, [3-[2-(1-Carbamoyl-2-naphthalen-2-yl-ethylcarbamoyl)-piperidin-1-yl]-3-oxo-2-(3-phenyl-propane-1-sulfonylamino)-propylsulfanylmethyl]-phosphonicacid]
< 1 µM | O=C(NC(Cc1ccc2ccccc2c1)c1ccccc1)[C@@H]1CCCCN1C(=O)CSCP(=O)(O)O (stereo partly drawn) [Compound 73, {2-[2-(2-Naphthalen-2-yl-1-phenyl-ethylcarbamoyl)-piperidin-1-yl]-2-oxo-ethylsulfanylmethyl}-phosphonic acid]
< 1 µM | COc1ccc(CCCC(=O)N[C@@H](CSCP(=O)(O)O)C(=O)N2CCCC[C@H]2C(=O)N[C@@H](Cc2ccc3ccccc3c2)C(N)=O)cc1 [Compound 38, {3-[2-(1-Carbamoyl-2-naphthalen-2-yl-ethylcarbamoyl)-piperidin-1-yl]-2-[4-(4-methoxy-phenyl)-butyrylamino]-3-oxo-propylsulfanylmethyl}-phosphonicacid]
< 1 µM | COc1ccc(CC(=O)N[C@@H](CSCP(=O)(O)O)C(=O)N2CCCC[C@H]2C(=O)N[C@@H](Cc2ccc3ccccc3c2)C(N)=O)cc1 [Compound 36, {3-[2-(1-Carbamoyl-2-naphthalen-2-yl-ethylcarbamoyl)-piperidin-1-yl]-2-[2-(4-methoxy-phenyl)-acetylamino]-3-oxo-propylsulfanylmethyl}-phosphonicacid]
< 1 µM | NC(=O)[C@H](Cc1ccc2ccccc2c1)NC(=O)[C@@H]1CCCCN1C(=O)[C@H](CSCP(=O)(O)O)NC(=O)CCCc1ccccc1 [Compound 23, [3-[2-(1-Carbamoyl-2-naphthalen-2-yl-ethylcarbamoyl)-piperidin-1-yl]-3-oxo-2-(4-phenyl-butyrylamino)-propylsulfanylmethyl]-phosphonicacid]
< 1 µM | NC(=O)[C@H](Cc1ccc2ccccc2c1)NC(=O)[C@@H]1CCCCN1C(=O)[C@H](CSCP(=O)(O)O)NC(=O)Cc1ccc(N2CCNCC2)cc1 [Compound 62, {3-[2-(1-Carbamoyl-2-naphthalen-2-yl-ethylcarbamoyl)-piperidin-1-yl]-3-oxo-2-[2-(4-piperazin-1-yl-phenyl)-acetylamino]-propylsulfanylmethyl}-phosphonicacid]
< 1 µM | NC(=O)[C@H](Cc1ccc2ccccc2c1)NC(=O)[C@@H]1CCCCN1C(=O)[C@H](CSCP(=O)(O)O)NC(=O)c1ccccc1 [Compound 20, {2-Benzoylamino-3-[2-(1-carbamoyl-2-naphthalen-2-yl-ethylcarbamoyl)-piperidin-1-yl]-3-oxo-propylsulfanylmethyl}-phosphonic acid]
1 to 10 µM | O=C(NCCc1ccc2ccccc2c1)[C@@H]1CCCCN1C(=O)CSCP(=O)(O)O [Compound 59, {2-[2-(2-Naphthalen-2-yl-ethylcarbamoyl)-piperidin-1-yl]-2-oxo-ethylsulfanylmethyl}-phosphonic acid]
1 to 10 µM | COC(=O)N[C@@H](CSCP(=O)(O)O)C(=O)N1CCCC[C@H]1C(=O)N[C@@H](Cc1ccc2ccccc2c1)C(N)=O [Compound 45, {3-[2-(1-Carbamoyl-2-naphthalen-2-yl-ethylcarbamoyl)-piperidin-1-yl]-2-methoxycarbonylamino-3-oxo-propylsulfanylmethyl}-phosphonic acid]
< 1 µM | NC(=O)[C@H](Cc1ccc2ccccc2c1)NC(=O)[C@@H]1CCCCN1C(=O)[C@H](CSCP(=O)(O)O)NC(=O)CCc1ccccc1 [Compound 22, [3-[2-(1-Carbamoyl-2-naphthalen-2-yl-ethylcarbamoyl)-piperidin-1-yl]-3-oxo-2-(3-phenyl-propionylamino)-propylsulfanylmethyl]-phosphonicacid]

Reference: patent US20080194524A1, “Compounds For the Inhibition of Undesired Cell Proliferation and Use Thereof” (JERINI AG, priority 2003, published 2008)
